This is an account of results in publication PMC8688955 (Frontiers in Pharmacology, 2021).

Where two headings read alike, the source gives them in different places.

For experiment [1], the system named is postsynaptic AMPA receptors. The arrangement: method as in Lee et al., 2008. To be noted: 30 and 100 µM lamotrigine; ref Lee et al., 2008; cited from earlier work.
In experiment [2] the target is T1, CI-AMPARs (Rattus norvegicus, UniProt P19491, Q607R).
T1 construct: activity against native calcium-permeable AMPA receptors (CP-AMPARs) and calcium-impermeable AMPA receptors (CI-AMPARs); endogenous in cells; host or cells: acutely isolated pyramidal neurons from the CA1 area of Wistar rat hippocampal slices
T1 sequence (P19491 22-883 Q607R): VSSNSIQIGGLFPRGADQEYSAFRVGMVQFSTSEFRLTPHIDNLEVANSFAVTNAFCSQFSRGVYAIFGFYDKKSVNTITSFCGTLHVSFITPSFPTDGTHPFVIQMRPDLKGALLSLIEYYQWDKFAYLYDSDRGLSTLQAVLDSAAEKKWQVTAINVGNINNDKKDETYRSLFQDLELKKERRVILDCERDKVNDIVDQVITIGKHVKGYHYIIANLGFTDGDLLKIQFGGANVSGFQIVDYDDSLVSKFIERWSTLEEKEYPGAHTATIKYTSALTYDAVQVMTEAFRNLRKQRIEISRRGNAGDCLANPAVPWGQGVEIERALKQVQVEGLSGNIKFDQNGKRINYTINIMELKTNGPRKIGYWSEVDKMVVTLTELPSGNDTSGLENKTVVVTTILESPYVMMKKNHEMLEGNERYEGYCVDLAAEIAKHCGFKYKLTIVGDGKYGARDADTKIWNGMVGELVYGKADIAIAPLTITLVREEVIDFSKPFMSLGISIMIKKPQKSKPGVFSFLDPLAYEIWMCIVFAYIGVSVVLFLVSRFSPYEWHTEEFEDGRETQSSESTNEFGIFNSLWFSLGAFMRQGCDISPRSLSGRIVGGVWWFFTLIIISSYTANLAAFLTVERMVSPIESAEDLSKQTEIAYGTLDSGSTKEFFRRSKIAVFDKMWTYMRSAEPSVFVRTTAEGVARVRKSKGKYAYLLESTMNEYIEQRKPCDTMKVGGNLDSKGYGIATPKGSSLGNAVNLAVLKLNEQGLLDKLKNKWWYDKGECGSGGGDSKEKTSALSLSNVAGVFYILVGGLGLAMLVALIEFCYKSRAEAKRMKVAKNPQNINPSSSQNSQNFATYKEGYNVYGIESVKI
The experiment can be described thus: Whole-cell patch-clamp of kainate-induced currents in isolated hippocampal CA1 pyramidal neurons. Format: cell-based, Wistar rat. The note with it: for CI-AMPARs % inhibition at 100 µM: 100 µM compound; for CI-AMPARs % inhibition at 100 µM / inhibition at 100 µM: currents induced by 100 µM kainate, −80 mV, mean ± SD, N = 5; for inhibition at 100 µM: read-out: CI-AMPARs % inhibition at 100 µM, 100 µM compound; for Difference in the % of inhibition in coapplication and preapplication protocols: coapplication with kainate vs preapplication without kainate. How it is done:
All experimental procedures were approved by the Animal Care and Use Committee of the I.M. Sechenov Institute of Evolutionary Physiology and Biochemistry of the Russian Academy of Sciences. Wistar rats (13–19 days old) were anesthetized with sevoflurane and then decapitated. Maximum effort was made to minimize the number of animals used. Brains were removed quickly and cooled to 2–4°C in an ice bath. […] The antagonism of CI-AMPARs was studied on pyramidal neurons from the CA1 area of the hippocampus.
Series resistance of about 20 MΩ was compensated by 70–80% and monitored during experiments. Currents were recorded using an EPC-8 amplifier (HEKA Electronics, Lambrecht, Germany), filtered at 5 kHz, sampled, and stored on a personal computer. Drugs were applied using the RSC-200 perfusion system (BioLogic Science Instruments, Claix, France) under computer control. The solution exchange time in the whole-cell mode was 50–60 ms. […] The pipette solution contained (in mM) CsF 100, CsCl 40, NaCl 5, CaCl2 0.5, EGTA 5, and HEPES 10 (pH was adjusted to 7.2 with CsOH). Experiments were performed at room temperature (22–24°C). […] Lamotrigine, topiramate, levetiracetam, felbamate, carbamazepine, tiagabin, vigabatrin, zonisamide, and gabapentin were purchased from Tocris Bioscience (Bristol, United Kingdom). Perampanel was from MedChemExpress (Stockholm, Sweden). Kinetics of transient processes of more than 20-ms duration was approximated by exponential functions. Experiments were performed at −80 mV holding voltage. All experimental data are presented as mean ± SD estimated from at least four experiments. Significance of the effects was tested with paired t test. Differences were considered significant at p < 0.05. 3D structures of compounds were calculated by the ZMM software (zmmsoft.ca).
Background: The patch-clamp technique gives a direct electrical read-out from membranes.

In experiment [3] the test system is CP-AMPARs. The experiment can be described thus: Whole-cell patch-clamp of kainate-induced currents in isolated striatal giant interneurons. Format: cell-based, Wistar rat. To be noted: for CP-AMPARs % inhibition at 100 µM: 100 µM compound, currents induced by 100 µM kainate, mean ± SD, N = 5; for IC50: read-out: IC50 CP-AMPARs, kainate-induced currents. How it is done: All experimental procedures were approved by the Animal Care and Use Committee of the I.M. Sechenov Institute of Evolutionary Physiology and Biochemistry of the Russian Academy of Sciences. Wistar rats (13–19 days old) were anesthetized with sevoflurane and then decapitated. Maximum effort was made to minimize the number of animals used. Brains were removed quickly and cooled to 2–4°C in an ice bath. […] Single neurons were freed from slices by vibrodissociation ([Vorobjev, 1991]). The antagonism of CP-AMPARs was studied on striatal giant interneurons ([Bernard et al., 1997]; [Gotz et al., 1997]), which were identified by their shape and size. […] The antagonism of CI-AMPARs was studied on pyramidal neurons from the CA1 area of the hippocampus.
Series resistance of about 20 MΩ was compensated by 70–80% and monitored during experiments. Currents were recorded using an EPC-8 amplifier (HEKA Electronics, Lambrecht, Germany), filtered at 5 kHz, sampled, and stored on a personal computer. Drugs were applied using the RSC-200 perfusion system (BioLogic Science Instruments, Claix, France) under computer control. The solution exchange time in the whole-cell mode was 50–60 ms. The extracellular solution contained (in mM) NaCl 143, KCl 5, MgCl2 2.0, CaCl2 2.5, D-glucose 18, and HEPES 10 (pH was adjusted to 7.3 with HCl). The pipette solution contained (in mM) CsF 100, CsCl 40, NaCl 5, CaCl2 0.5, EGTA 5, and HEPES 10 (pH was adjusted to 7.2 with CsOH). Experiments were performed at room temperature (22–24°C). […] Lamotrigine, topiramate, levetiracetam, felbamate, carbamazepine, tiagabin, vigabatrin, zonisamide, and gabapentin were purchased from Tocris Bioscience (Bristol, United Kingdom). Perampanel was from MedChemExpress (Stockholm, Sweden). Kinetics of transient processes of more than 20-ms duration was approximated by exponential functions. Experiments were performed at −80 mV holding voltage. All experimental data are presented as mean ± SD estimated from at least four experiments. Significance of the effects was tested with paired t test. Differences were considered significant at p < 0.05. 3D structures of compounds were calculated by the ZMM software (zmmsoft.ca).

Experiment [4] deals with hGluA1-4 receptors. Also on record: method as in Fukushima et al. (2020). The note with it: ref Fukushima et al. (2020); cited from earlier work.
Experiment [5] relates to AMPAR. Also on record: method as in Dudic and Reiner, 2019. The note with it: ref Dudic and Reiner, 2019; cited from earlier work.
Experiment [6] relates to AMPA receptors. The arrangement: method as in Carunchio et al., 2007. To be noted: 200 µM levetiracetam; ref Carunchio et al., 2007; cited from earlier work.
Experiment [7] has as its system AMPA and kainate-evoked Ca^2+ uptake. The note with it: 30 and 100 µM topiramate; ref Poulsen et al., 2004; cited from earlier work.
Experiment [8] addresses T1, CI-AMPARs. Also on record: method as in Barygin, 2016. To be noted: ref Barygin, 2016, cited from earlier work.
[9] abbreviates: double-pulse protocol, 30-s pause.

As a reminder, the inhibition is how much of the control response was suppressed. By IC50 is commonly meant the midpoint of a concentration-inhibition curve.

Turning to `Nc1nnc(-c2cccc(Cl)c2Cl)c(N)n1` [Lamotrigine], in experiment [1], the “decrease of the amplitude of the currents induced by exogenously applied AMPA” value is on record as 10%. The “CI-AMPARs % inhibition at 100 µM” value in experiment [2] is 14 ± 5%. In addition, the inhibition at 100 µM in experiment [2] was no more than 20%. The “CP-AMPARs % inhibition at 100 µM” value in experiment [3] (−80 mV) is 13 ± 3%; in experiment [3] (−80 mV, listed as lamotrigine), no more than 20%. Besides, the “activity against hGluA1-4 receptors” value in experiment [4] is listed as “did not find significant activity”.

As for `O=c1[nH]c2cc([N+](=O)[O-])c([N+](=O)[O-])cc2[nH]c1=O` [DNQX], the pH-dependence result in experiment [5] is given as “Yes ^a”. In addition, the IC50 in experiment [3] (Hill equation, −80 mV) stood at 0.31 ± 0.06 µM.

`CC[C@@H](C(N)=O)N1CCCC1=O` [Levetiracetam]: the “decrease of the amplitude of kainate-induced current” value in experiment [6] is on record as “about 26%”. Further, the “CI-AMPARs % inhibition at 100 µM” value in experiment [2] is 6 ± 2%; in experiment [2] (listed as levetiracetam), no more than 20%. Besides, the “CP-AMPARs % inhibition at 100 µM” value was 9 ± 3% in experiment [3] (−80 mV) and no more than 20% in experiment [3] (−80 mV, listed as levetiracetam). Also, in experiment [4], the “activity against hGluA1-4 receptors” value was “did not find significant activity”.

With `CC1(C)O[C@@H]2[C@@H](CO[C@@]3(COS(N)(=O)=O)OC(C)(C)O[C@@H]23)O1` [Topiramate], the “inhibition of AMPA and kainate-evoked Ca^2+ uptake” value in experiment [7] is on record as “up to 60%”. For the same compound, the “CI-AMPARs % inhibition at 100 µM” value in experiment [2] came out at 12 ± 2%. Besides, the inhibition at 100 µM in experiment [2] is no more than 20%. Besides, the “CP-AMPARs % inhibition at 100 µM” value in experiment [3] (−80 mV) is 14 ± 2%; in experiment [3] (−80 mV, listed as topiramate), no more than 20%. Also, the “activity against hGluA1-4 receptors” value in experiment [4] is “did not find significant activity”.

In the case of `N#Cc1ccccc1-c1cc(-c2ccccn2)cn(-c2ccccc2)c1=O` [Perampanel], in experiment [2], the “Activity drop at high (500 µM) kainate concentration” value is “more active in the case of lower kainate concentration and Yes”; the “More active against CI-AMPARs” value was “equipotently inhibited both receptor subtypes and No”; the “Difference in the % of inhibition in coapplication and preapplication protocols” value is given as “No”. For the same compound, in experiment [2] (500 nM perampanel, double-pulse protocol, n = 4), the “time constant τ of the response to testing kainate application in the trapping protocol” value is given as 41 ± 12 ms. In addition, in experiment [2] (50 vs 500 µM kainate), the “decrease in the % of inhibition with the increase in agonist concentration” value is recorded as 30–40%. Further, in experiment [2] (listed as perampanel), the “Difference in the % of inhibition in coapplication and preapplication protocols” value was “equally effective in preapplication and coapplication protocols”. Further, in experiment [2] (setting [9]), the “Trap in kainate 100 µM” value is listed as “No” and the “Trap in kainate 500 µM” value was “No”. The midpoint of inhibition in experiment [2] (kainate-induced currents), the IC50, lay at 0.063 ± 0.008 µM. Moreover, the “reduction in activity by cyclothiazide” value in experiment [8] (isolated CA1 pyramidal neurons) is reported as “ca. 20 fold”. In experiment [8], the “Activity drop in the presence of cyclothiazide” value is “Yes”. Further, the “Activity drop in the presence of cyclothiazide” value in experiment [8] (listed as perampanel) is given as “less active in the presence of cyclothiazide”. Also, the IC50 in experiment [3] turned out to be 0.06 ± 0.006 µM.
